From patent US20140106421A1, “Methods Of Producing Carboxylic Acids And/Or Alcohols” (Industrial Technology Research Institute, priority 2012, published 2014)
Each block holds one compound with its values, some of them ahead of it.

Experiments:
[1] = test system: C. tyrobutyricum ATCC25755; experiment: Free-cell culture with organic solution on top of the culture medium (Example 2); assay type: cell-based; details: free cells, 24 hours at 37° C.
Experimental: The culture medium was then inoculated with 0.08 ml of bacterial stock comprising C. tyrobutyricum ATCC25755. The initial optical density (OD) measured at a wavelength of 600 nm was 0.2. After inoculation, 0.8 ml of an organic solution (as listed in the Table 4 below) was added to the top of the culture medium. The bacteria was then cultured in Tecan infinite 200 Pro Multimode Microplate Readers (Tecan Group Ltd., Switzerland) for 24 hours at 37° C., with shaking once every 30 minutes.

[2] = test system: PVA-immobilized clostridium tyrobutyricum; experiment: 2-liter tank fermentor extractive fermentation (Example 5); assay type: cell-based; details: 37° C., 40 hours
Description: A 2-liter tank fermentor 500 as illustrated in FIG. 5 was used in this Example. […] The medium was then purged with N2 to reach anaerobiosis. The pH of the basal medium was further adjusted to 6.0 with 2 N NaOH. Subsequently, the medium was inoculated with about 100 g of PVA-immobilized C. tyrobutyricum cell beads prepared as described above. An extractive fermentation-column reactor similar to the one shown in FIG. 5 was used in this example. The lower region of the reactor was filled with 700 ml of the basal medium containing glucose as the substrate and inoculated with about 70 ml of PVA-immobilized clostridium tyrobutyricum. In addition, the upper region of the reactor was filled with either 700 ml of 1 M TOPO in oleyl alcohol or 700 ml of oleyl alcohol without TOPO. The fermentation was conducted at 37° C. for 40 hours, and the pH of the fermentation medium was not controlled in this example.

[3] = Extraction of butyric acid from CGM medium with TOA in oleyl alcohol (Example 1.1); assay type: physicochemical; details: CGM medium with 5% butyric acid, pH 4, 37° C.
Experimental: 50 ml of CGM culture medium (basal medium, see the table provided immediately below) containing 5% of butyric acid (the pH of the CGM medium decreased to 4 after the addition of the butyric acid) was mixed with 5 ml of 0.7 M, 1 M, […] of trioctylamine (C24H51N, CAS No. 1116-76-3, abbreviation: TOA) in oleyl alcohol at 37° C.
The concentrations of butyric acid in the CGM culture medium (i.e., the aqueous phase) and in the trioctylamine solution (i.e., the organic phase) were measured every 12 hours by high performance liquid chromatography (HPLC).
The butyric acid distribution ratio (D) was calculated by dividing the concentration of butyric acid in the organic medium by the concentration of butyric acid in the aqueous medium: […]

[4] = test system: PVA-immobilized clostridium tyrobutyricum; experiment: Extractive fermentation-column reactor, 1 M TOPO or TBP in oleyl alcohol (Example 4C); assay type: cell-based; details: 1 M extractant in oleyl alcohol as organic phase; 37° C., 100 hours
Experimental: In addition, the upper region of the reactor was filled with either 40 ml of 1 M TOPO in oleyl alcohol or 40 ml 1 M TBP in oleyl alcohol. The fermentation was conducted at 37° C. for 100 hours.

[5] = Extraction of butyric acid from CGM medium with TOPO in oleyl alcohol (Example 1.2); assay type: physicochemical; details: 24 hours, 37° C.
Experimental: The butyric acid distribution ratio (D) was calculated by dividing the concentration of butyric acid in the organic medium by the concentration of butyric acid in the aqueous medium:
[…] The pH of the culture medium was further adjusted to a value ranging from 4 to 6 with 4 N NaOH and 4 N HCl.
After 24 hours, the concentrations of butyric acid in the CGM culture medium (the aqueous phase) and in the TOPO solution (the organic phase) were measured by HPLC.

- Distribution ratio of butryic acid [2]: 0.86
Compound: CCCCCCCC/C=C\CCCCCCCCO [Oleyl alcohol only, oleyl alcohol]
- Glucose consumption rate % [1]: 80.7%
- Bacterial Growth rate (OD/h) ([1]; OD at 600 nm): 0.08 OD/h
- % of glucose consumed [2]: 100%

- Butyric acid distribution ratio (D) ([3]; 0.7M TOA in oleyl alcohol): 7.38
- Butyric acid distribution ratio (D) ([3]; 1M TOA in oleyl alcohol): 10.21
- Butyric acid distribution ratio (D) ([3]; 1.4M TOA in oleyl alcohol): 13.82
Compound: CCCCCCCCN(CCCCCCCC)CCCCCCCC [TOA, trioctylamine]

- butyric acid distribution ratio ([5]; TOPO 0.1 M in oleyl alcohol, butyric acid 1%, pH 4): 1.45
- butyric acid distribution ratio ([5]; TOPO 0.1 M in oleyl alcohol, butyric acid 1%, pH 5): 0.31
- butyric acid distribution ratio ([5]; TOPO 0.1 M in oleyl alcohol, butyric acid 1%, pH 6): 0.00
- butyric acid distribution ratio ([5]; TOPO 0.1 M in oleyl alcohol, butyric acid 2%, pH 4): 2.12
- butyric acid distribution ratio ([5]; TOPO 0.1 M in oleyl alcohol, butyric acid 2%, pH 5): 0.37
- butyric acid distribution ratio ([5]; TOPO 0.1 M in oleyl alcohol, butyric acid 2%, pH 6): 0.05
- butyric acid distribution ratio ([5]; TOPO 0.1 M in oleyl alcohol, butyric acid 3%, pH 4): 2.17
- butyric acid distribution ratio ([5]; TOPO 0.1 M in oleyl alcohol, butyric acid 3%, pH 5): 0.26
- butyric acid distribution ratio ([5]; TOPO 0.1 M in oleyl alcohol, butyric acid 3%, pH 6): 0.00
- butyric acid distribution ratio ([5]; TOPO 0.5 M in oleyl alcohol, butyric acid 1%, pH 4): 1.91
- butyric acid distribution ratio ([5]; TOPO 0.5 M in oleyl alcohol, butyric acid 1%, pH 5): 0.36
- butyric acid distribution ratio ([5]; TOPO 0.5 M in oleyl alcohol, butyric acid 1%, pH 6): 0.03
- butyric acid distribution ratio ([5]; TOPO 0.5 M in oleyl alcohol, butyric acid 2%, pH 4): 2.82
- butyric acid distribution ratio ([5]; TOPO 0.5 M in oleyl alcohol, butyric acid 2%, pH 5): 0.37
- butyric acid distribution ratio ([5]; TOPO 0.5 M in oleyl alcohol, butyric acid 2%, pH 6): 0.06
- butyric acid distribution ratio ([5]; TOPO 0.5 M in oleyl alcohol, butyric acid 3%, pH 4): 2.90
- butyric acid distribution ratio ([5]; TOPO 0.5 M in oleyl alcohol, butyric acid 3%, pH 5): 0.35
- butyric acid distribution ratio ([5]; TOPO 0.5 M in oleyl alcohol, butyric acid 3%, pH 6): 0.04
- butyric acid distribution ratio ([5]; TOPO 1 M in oleyl alcohol, butyric acid 1%, pH 4): 2.67
- butyric acid distribution ratio ([5]; TOPO 1 M in oleyl alcohol, butyric acid 1%, pH 5): 0.42
- butyric acid distribution ratio ([5]; TOPO 1 M in oleyl alcohol, butyric acid 1%, pH 6): 0.06
- butyric acid distribution ratio ([5]; TOPO 1 M in oleyl alcohol, butyric acid 2%, pH 4): 3.88
- butyric acid distribution ratio ([5]; TOPO 1 M in oleyl alcohol, butyric acid 2%, pH 5): 0.43
- butyric acid distribution ratio ([5]; TOPO 1 M in oleyl alcohol, butyric acid 2%, pH 6): 0.04
- butyric acid distribution ratio ([5]; TOPO 1 M in oleyl alcohol, butyric acid 3%, pH 4): 4.20
- butyric acid distribution ratio ([5]; TOPO 1 M in oleyl alcohol, butyric acid 3%, pH 5): 0.35
- butyric acid distribution ratio ([5]; TOPO 1 M in oleyl alcohol, butyric acid 3%, pH 6): 0.04
Compound: CCCCCCCCP(=O)(CCCCCCCC)CCCCCCCC [TOPO, trioctylphosphine oxide]
- Cells growth (Δ OD600) [4]: 6.0
